Data on 36 compounds can be found in a melting point compilation (Tetko et al.; mined from patent text by program, amines drawn as free bases though some values may be those of a salt).

Some results are limits rather than exact numbers.

The term melting point denotes the temperature of the solid-liquid transition. `O=C(c1ccccc1)N(CCCn1cncn1)C1=Nc2cccc3cccc1c23` returned a melting point of 140 to 141 °C.
In turn, `Nc1ccc(F)c(SC(F)(F)F)c1` registered a melting point of 120 °C.
Take `N#CN(Cc1ccccc1)c1ccccn1`: the melting point lay in the range of 65 to 66 °C.
Then `CC(C)(C)OC(=O)N1CCc2c(n(CCO)c3ccc(Cl)c(Cl)c23)CC1`, with 174 to 176 °C; and `Cc1cc(C#N)c(C)c(C(=O)Nc2ccc(F)c(C)n2)n1`, with 201 °C.
`COc1cc2[nH]c(C(=O)OCc3ccccc3)cc2c(C)c1C`: the melting point is 161 °C.
As to `ON=C1CCC(c2ccc(Cl)cc2)c2ccccc21` (stereo unspecified), the melting point was in the range of 150 to 154 °C.
As to `CCOCCn1cc2c(=O)[nH]c(=O)[nH]c2n1`, the melting point was greater than 300 °C.
Consider `COc1ccc2cc(C(=O)CNC(=O)c3cn(C)c4ccccc34)ccc2c1`, for which the melting point was in the range of 177 to 180 °C.
Then `COc1cccc(-c2nc(-c3ccccc3C)n(C(=O)Nc3ccccc3)n2)c1`, with 123 to 125 °C.
On to `C=C1C(=C)C2OC1C1=C2Cc2c(cccc2OC)C1` (stereo unspecified), for which the melting point lay in the range of 145 to 147 °C.
Take `C#Cc1cnn2c(C(F)F)cc(-c3cccc(C(F)(F)F)c3)nc12`: the melting point was 149 °C.
Then `Nc1nc(N)c(N)c(OCc2ccccc2)n1`, with 130 to 135 °C; and `O=C1N[C@H](Cc2ccc(C(F)(F)F)cc2)[C@H](c2ccoc2)O1` (racemic), with 111 to 112 °C; and `CCCC1CC(=O)c2c(NC(=O)C(=O)O)ccc(C)c21` (stereo unspecified), with 157 to 158 °C.
Under `Cc1ccc(C(=O)CCc2ccc(N3CCN(c4ccncc4)CC3)cc2)cc1` stands 114 to 115 °C; under `ClCCOc1cccc2ncccc12`, 75 to 78 °C; under `COc1cc(COc2nn(-c3ccccc3)cc2/C=C/c2coc(C(C)(C)C)n2)ccc1OCc1nc(-c2ccc(CC(=O)O)cc2)oc1C`, 104 to 106 °C.
`CCCC(O)c1cc2c(cc1C)OCO2` (stereo unspecified) yielded a melting point of 65.5 to 66.5 °C.
Then `COc1ccc2c(=O)cc(-c3nc4ccccc4[nH]3)oc2c1`, with 201 to 203 °C; and `O=C(CSc1ccccc1)c1ccc2[nH]c3nc(Cl)ccc3c2c1`, with 256 °C.
Then `OP(O)C(NC(c1ccccc1)c1ccccc1)c1ccc2c(c1)OCO2` (stereo unspecified), with 194 to 195 °C; and `Cc1ccccc1-c1cccc(F)c1C(=O)NCCCl`, with 78 to 81 °C; and `CS(=O)(=O)c1ccc(-n2nc(C=O)cc2-c2ccccc2)cc1`, with 133 to 136 °C.
Then `CCCC(=O)O[C@H]1[C@H](OCc2ccccc2)[C@@H](OCc2ccccc2)[C@H](OCc2ccccc2)[C@@H](OCc2ccccc2)[C@]1(O)CCC` (racemic), with 143 °C; and `CC(C)(C)c1cc(-c2nc(CC(=O)O)co2)cc(C(C)(C)C)c1O`, with 166 to 168 °C.
Compound `COc1nc(Cl)cnc1NS(=O)(=O)c1ccccc1-c1ccc(OC(C)C(=O)O)cc1` (stereo unspecified) gave a melting point of 223 to 225 °C.
Under `CCCCNc1cc(C)nc2cn[nH]c12` stands 160 to 170 °C; under `CC(=O)N1CC[C@H](Oc2ccc(C=Cc3cc4cc(C#N)ccc4o3)cc2O)C1`, 191 to 193 °C; under `Oc1ccc(CCC(CCc2ccc(O)cc2)(c2ccc(O)cc2)c2ccc(O)cc2)cc1`, 252 °C.
With `COC(=O)CN1C(=O)CC1SCc1ccc(OC)cc1` (stereo unspecified), the melting point was in the range of 45 to 46 °C.
Under `COc1ccc(S(=O)(=O)Nc2cccc3cn[nH]c23)cc1` stands 155 to 156 °C; under `COC(=O)[C@H](Cc1cc(F)cc(F)c1)NC(=O)OCc1ccccc1`, 54 °C.
Under `c1ccc(C(c2ccccc2)N2CCN(CCCOc3ccc4nncn4n3)CC2)cc1` stands 132 to 134 °C; under `CSc1cnc2sccc2c1O`, 203 to 205 °C.
`COc1cc(OC)nc(NC(=O)NS(=O)(=O)c2sc(Cl)c3c2C(=O)OCC3)n1` registered a melting point of 110 to 114 °C.
